Several values for one entry are separate records, joined by “and”; a condition that tells them apart may be missing. Equal entries are not always repeated.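 All cell lines were grown in 96-well plates and treated with compound for 48 hours. GI50 is the concentration that inhibits growth by half. TGI marks complete inhibition of growth.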
How the values were obtained:
Assay in all cases: inhibition of tumour cell growth, NCI panel, 48 h
[1] = test system: MCF7 breast
[2] = test system: A498 renal
[3] = test system: OVCAR-4 ovarian
[4] = test system: HS 578T breast
[5] = test system: RXF 393 renal
[6] = test system: DU-145 prostate
[7] = test system: HOP-92 NSCLC
[8] = test system: OVCAR-8 ovarian
[9] = test system: CCRF-CEM leukemia
[10] = test system: EKVX NSCLC

| SMILES | TGI [1] | TGI [2] | TGI [3] | TGI [4] [µM] | TGI [5] | TGI [6] [µM] | TGI [7] | TGI [8] | TGI [9] [µM] | TGI [10] | GI50 [1] [µM] | GI50 [2] [µM] | GI50 [3] [µM] | GI50 [7] [µM] | GI50 [8] [µM] | GI50 [9] | GI50 [10] [µM] | GI50 [4] [µM] | GI50 [5] [µM] | GI50 [6] [µM] |
| --- | --- | --- | --- | --- | --- | --- | --- | --- | --- | --- | --- | --- | --- | --- | --- | --- | --- | --- | --- | --- |
| c1ccc(/C(=N\Nc2nc3ccccc3[nH]2)c2ccccn2)cc1 | 5.45 µM | 5.14 µM | 4.99 µM | 51.7 | 14.4 µM | > 100 | 0.887 µM | 1.05 µM | 0.891 | 2.96 µM |  |  |  |  |  |  |  |  |  |  |
| COC(=O)c1c(O)ccc2c1c1c(n2CCc2ccc(OC)c(OC)c2)C(=O)c2ccccc2C1=O | 45.2 µM | 32.9 µM | 35.6 µM | 37.2 | 39.5 µM | 29.5 | 43.6 µM | 32.6 µM | 45.2 | 40.8 µM |  |  |  |  |  |  |  |  |  |  |
| O=C1Nc2cccc(Cl)c2/C1=C\c1cccnc1 | 18.1 µM | 37.1 µM | 31.7 µM | 91.9 | 7.48 µM | 35.9 | 68 µM | 20.1 µM | > 100 | 93.1 µM |  |  |  |  |  |  |  |  |  |  |
| N#CC1(CCCI)CCCC1 |  | > 100 µM |  |  | 23 µM |  | 35 µM | > 100 µM | > 100 | > 100 µM |  |  |  |  |  |  |  |  |  |  |
| N#Cc1c(-c2ccc([N+](=O)[O-])cc2)c2c([nH]c1=O)-c1ccccc1CCC2 | > 100 µM | > 100 µM | > 100 µM | > 100 | 73.8 µM | > 100 | 48.4 µM | > 100 µM |  | > 100 µM |  |  |  |  |  |  |  |  |  |  |
| CC[C@@]1(O)CC(OC2CC(N3CCOCC3)C(O)C(C)O2)c2c(O)c3c(c(O)c2[C@H]1O)C(=O)c1cccc(O)c1C3=O (some centres not stated) | 2.58 µM and 13.8 µM | 0.634 µM and 0.229 µM | 1.55 µM and 2.88 µM | 1.61 | 0.715 µM and 1.15 µM | 0.852 | 0.383 µM and 0.871 µM | 1.07 µM and 5.5 µM |  | 1.02 µM and 1.63 µM | 0.0161 | 0.07 | 0.199 | 0.0725 | 0.0285 | 0.000479 µM and < 0.0102 µM | 0.241 |  |  |  |
| CC(C)CCN(CCC(C)C)CC(=O)Nc1ccc(S(=O)(=O)c2ccc(NC(=O)CN(CCC(C)C)CCC(C)C)cc2)cc1 | 11 µM | 38.8 µM | 12.7 µM | 70.3 | 5.87 µM | 6.16 | 3.64 µM | > 100 µM | 3.87 | 18.8 µM | 1.31 | 16.5 | 2.56 | 1.68 | 2.89 | 1.06 µM | 3.27 | 5.37 | 1.79 | 2.29 |
| O=C1OC(c2ccc(O)cc2)(c2ccc(O)cc2)c2ccc(Cl)c3cccc1c23 (tested in a mixture with another compound) | > 75 µM | > 75 µM | 0.325 µM | 40.6 | 27.4 µM | > 75 | > 75 µM | 38.9 µM | 36.2 | 4.88 µM |  |  |  |  |  |  |  |  |  |  |
| C[n+]1c2ccccc2c(N=[N+]=[N-])c2ccccc21 | > 10 µM | > 10 µM | > 10 µM | > 10 | > 10 µM | > 10 |  | > 10 µM | > 10 | > 10 µM |  |  |  |  |  |  |  |  |  |  |
| CC(=O)OC(C(=O)O)C(OC(C)=O)C(OC(C)=O)C(OC(C)=O)C(=O)O (configuration not stated) | > 100 µM | > 100 µM |  | > 100 |  |  | > 100 µM | > 100 µM | > 100 | > 100 µM |  |  |  |  |  |  |  |  |  |  |
| C=C(CN(C)C)C(=O)c1ccccc1OC |  | 64 µM | 45.9 µM | 56.8 | 23.7 µM | > 64 | 32.1 µM | 50 µM | 14.5 | 48.6 µM |  |  |  |  |  |  |  |  |  |  |
| Cc1ncc(C(=O)Nc2ccc(CN3CCN(C)CC3)c(C(F)(F)F)c2)cc1C#Cc1cnc(N)c2ccc(C#N)cc12 | > 100 µM |  |  |  |  | 2.34 | 0.0783 µM |  |  | 29.6 µM | 2.04 |  |  | 0.0165 |  |  | 0.0827 |  |  | 0.0157 |
| O=C(CSCC(=O)N/N=C\c1ccc(F)cc1F)N/N=C\c1ccc(F)cc1F | > 100 µM | > 100 µM | > 100 µM | > 100 | > 100 µM | > 100 | > 100 µM | > 100 µM | > 100 | > 100 µM |  |  |  |  |  |  |  |  |  |  |
| CCCCCCCCCCCCc1ccc(S(=O)(=O)O)cc1.[Cu+2] | > 100 µM | > 100 µM | > 100 µM | > 100 | > 100 µM | > 100 | > 100 µM | > 100 µM | > 100 | > 100 µM |  |  |  |  |  |  |  |  |  |  |
| Cc1csc2nc(-c3cccc([N+](=O)[O-])c3)c(/C=N/N=C(N)N)n12 |  | 2.92 µM | 3.19 µM | 3.45 |  | 4.28 | 1.37 µM | 3.2 µM |  | 2.96 µM |  |  |  |  |  |  |  |  |  |  |
| c1ccc(CSC(SCc2ccccc2)c2cccc3ccccc23)cc1 | > 10 µM | > 10 µM | > 10 µM | > 10 | > 10 µM | > 10 |  | > 10 µM | > 10 | > 10 µM |  |  |  |  |  |  |  |  |  |  |
| C[N+]1(C(CO)Cc2c[nH]c3ccccc23)Cc2ccccc2C1 (configuration not stated) | > 100 µM | > 100 µM | > 100 µM | > 100 | > 100 µM | > 100 | > 100 µM | > 100 µM | > 100 | > 100 µM |  |  |  |  |  |  |  |  |  |  |
| CC(C)CNC1=NCC(C)S1 (configuration not stated) | > 100 µM | > 100 µM |  | > 100 | > 100 µM | > 100 | > 100 µM |  | > 100 | > 100 µM |  |  |  |  |  |  |  |  |  |  |
| O=C(O)c1cc2ccccc2c(N=Nc2ccc(S(=O)(=O)Nc3ccccn3)cc2)c1O | > 100 µM |  | > 100 µM | > 100 | > 100 µM | > 100 | > 100 µM | > 100 µM | > 100 | > 100 µM |  |  |  |  |  |  |  |  |  |  |

Reference: PubChem BioAssay (NCI)
